From PMC11053447, “Human ABC and SLC Transporters: The Culprit Responsible for Unspecific PSMA-617 Uptake?” (Pharmaceuticals, 2024)

How the values were obtained:
human MATE2-K = human MATE2-K (Homo sapiens, UniProt Q86VL8); assay: SLC transporter substrate assay, MDCKII-MATE2K-Fin vs control MDCKII-CAT-Fin cells
Protocol: The described cells were plated onto standard 24-well tissue culture plates at densities of 5 × 10^5 cells/well. […] Before starting the experiment, the cells were prepared by removing the medium and washing the cells twice with 300 µL of assay buffer. […] The cells were lysed by adding 300 µL of 0.1N NaOH, they were incubated for 10 min at 37 °C and 100 µL samples were taken from all the wells.
The amount of protein in each well was quantified using the BCA kit for protein determination (Sigma-Aldrich, St Louis, MO, USA). Positive controls were performed using a separate 96-well plate format according to Table S8 in SI4.
SI4. Results of transporter substrate assays (SLC)
Table S8: Parameters of positive controls, control cell lines and plating for SLC transporters assays.
KH: Krebs-Henseleit buffer, HBSS: Hank's balanced salt solution, MES: 2 -(N-morpholino) ethanesulfonic acid, cGMP:
Guanosine cyclic phosphate, E3S: Estrone -3-sulfate, Gly-Sar: Glycylsarcosine, MPP+: 1-methyl-4-phenylpyridinium.
Calculation of fold accumulation values for SLC transporter substrate assays The fold accumulation value was defined as the ratio of uptake of the test substance (TS) or probe substrate into transfected and control cells. If the fold accumulation is > 2 and can be inhibited by a known inhibitor of the transporter, the test substance can be considered as a substrate of the respective transporter.
Fold accumulation = UPTTRP
• UPTTRP: accumulated amount of test substance (TS) or probe substrate in transfected cells normalized by protein content […]
• UPTCTRL: accumulated amount of test substance (TS) or probe substrate in control cells normalized by protein content […]
4.2 Multidrug and toxin extrusion protein MATE2-K
(MDCKII-MATE2K-Fin) and control cells (MDCKII-CAT-Fin) applying 2- and 20-minute incubation periods, measured in SLC transporter substrate assay. […] Concentrations are nominal. […]
and control cells (MDCKII-CAT-Fin) applying 2- and 20-minute incubation periods, measured in SLC transporter […]
Compound Nominal In MATE2-K Fold

human OAT4 = target: T1, human OAT4 (Homo sapiens, UniProt Q9NSA0); assay: SLC transporter substrate assay, HEK293-OAT4-LV vs control HEK293-Mock-LV cells; settings: 20 min
T1 sequence (Q9NSA0 1-550): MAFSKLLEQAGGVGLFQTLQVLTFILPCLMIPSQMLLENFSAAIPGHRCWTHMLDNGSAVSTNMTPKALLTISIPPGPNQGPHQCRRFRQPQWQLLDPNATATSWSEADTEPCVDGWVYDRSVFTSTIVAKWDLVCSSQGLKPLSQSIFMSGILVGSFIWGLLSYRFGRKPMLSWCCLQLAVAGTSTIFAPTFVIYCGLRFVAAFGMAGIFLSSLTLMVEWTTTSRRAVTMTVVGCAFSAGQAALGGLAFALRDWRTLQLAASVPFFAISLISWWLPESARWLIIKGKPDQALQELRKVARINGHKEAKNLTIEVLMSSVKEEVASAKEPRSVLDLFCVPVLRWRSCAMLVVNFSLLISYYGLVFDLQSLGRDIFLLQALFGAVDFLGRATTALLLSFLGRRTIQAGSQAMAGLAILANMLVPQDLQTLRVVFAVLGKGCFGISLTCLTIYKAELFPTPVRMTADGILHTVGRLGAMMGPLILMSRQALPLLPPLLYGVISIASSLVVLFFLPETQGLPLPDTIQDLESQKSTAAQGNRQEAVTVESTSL

[1] = 0.03 µM nominal + Benzbromarone 300 µM
[2] = 0.30 µM nominal + Benzbromarone 300 µM

Chain of human MATE2-K (Q86VL8 1-566 isoform Q86VL8-3): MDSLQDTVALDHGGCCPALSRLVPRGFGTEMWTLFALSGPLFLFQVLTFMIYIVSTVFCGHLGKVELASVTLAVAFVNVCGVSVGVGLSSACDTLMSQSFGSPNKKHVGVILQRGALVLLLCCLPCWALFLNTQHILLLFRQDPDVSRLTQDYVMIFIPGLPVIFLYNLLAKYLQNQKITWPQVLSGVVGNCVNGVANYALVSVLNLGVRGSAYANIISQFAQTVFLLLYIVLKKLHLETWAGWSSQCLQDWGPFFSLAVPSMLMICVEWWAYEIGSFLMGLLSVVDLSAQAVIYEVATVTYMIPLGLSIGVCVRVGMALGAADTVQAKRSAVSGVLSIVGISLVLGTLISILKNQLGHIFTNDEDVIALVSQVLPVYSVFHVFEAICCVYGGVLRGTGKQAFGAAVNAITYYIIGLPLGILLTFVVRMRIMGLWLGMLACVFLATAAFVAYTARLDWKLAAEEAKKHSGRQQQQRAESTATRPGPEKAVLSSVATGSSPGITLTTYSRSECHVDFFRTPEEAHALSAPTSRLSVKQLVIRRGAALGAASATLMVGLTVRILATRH

Structure (SMILES): [3H]C(c1ccc2ccccc2c1)C([3H])(NC(=O)C1CCC(CNC(=O)CN2CCN(CC(=O)[O-])CCN(CC(=O)[O-])CCN(CC(=O)[O-])CC2)CC1)C(=O)NCCCCC(NC(=O)NC(CCC(=O)O)C(=O)O)C(=O)O.[Lu+3] (stereo not drawn) [([α,β-^3H]Nal)Lu-PSMA-617]
- Accumulation in MATE2-K transporter expressing cells (human MATE2-K; 0.03 µM nominal, 2 min): 0.06 ± 0.01 pmol/mg protein
- Accumulation in control cells (human MATE2-K; 0.03 µM nominal, 2 min): 0.11 ± 0.01 pmol/mg protein
- Accumulation, active transport (human MATE2-K; 0.03 µM nominal, 2 min): -0.05 ± 0.02 pmol/mg protein
- Fold accumulation (human MATE2-K; 0.03 µM nominal, 2 min): 0.54
- Accumulation in MATE2-K transporter expressing cells (human MATE2-K; 0.03 µM nominal, 20 min): 0.10 ± 0.01 pmol/mg protein
- Accumulation in control cells (human MATE2-K; 0.03 µM nominal, 20 min): 0.16 ± 0.01 pmol/mg protein
- Accumulation, active transport (human MATE2-K; 0.03 µM nominal, 20 min): -0.07 ± 0.01 pmol/mg protein
- Fold accumulation (human MATE2-K; 0.03 µM nominal, 20 min): 0.59
- Accumulation in MATE2-K transporter expressing cells (human MATE2-K; 0.30 µM nominal, 2 min): 0.64 ± 0.14 pmol/mg protein
- Accumulation in control cells (human MATE2-K; 0.30 µM nominal, 2 min): 0.59 ± 0.04 pmol/mg protein
- Accumulation, active transport (human MATE2-K; 0.30 µM nominal, 2 min): 0.05 ± 0.15 pmol/mg protein
- Fold accumulation (human MATE2-K; 0.30 µM nominal, 2 min): 1.08
- Accumulation in MATE2-K transporter expressing cells (human MATE2-K; 0.30 µM nominal, 20 min): 0.91 ± 0.13 pmol/mg protein
- Accumulation in control cells (human MATE2-K; 0.30 µM nominal, 20 min): 0.97 ± 0.07 pmol/mg protein
- Accumulation, active transport (human MATE2-K; 0.30 µM nominal, 20 min): -0.06 ± 0.15 pmol/mg protein
- Fold accumulation (human MATE2-K; 0.30 µM nominal, 20 min): 0.94
- Substrate assessment (MATE2-K) (human MATE2-K; 0.03, 0.30 µM, 2, 20 min): no in vitro substrate
- Max. transporter-specific fold accumulation, without inhibitor (human MATE2-K; 2 min, 0.3 µM): 1.08
- Accumulation in OAT4 transporter expressing cells (human OAT4; [1]): 0.03 ± 0.01 pmol/mg protein
- Accumulation in control cells (human OAT4; [1]): 0.02 ± 0.00 pmol/mg protein
- Accumulation, active transport (human OAT4; [1]): 0.01 ± 0.01 pmol/mg protein
- Fold accumulation (human OAT4; [1]): 1.47
- Accumulation in OAT4 transporter expressing cells (human OAT4; 0.03 µM nominal, no inhibitor): 0.04 ± 0.01 pmol/mg protein
- Accumulation in control cells (human OAT4; 0.03 µM nominal, no inhibitor): 0.03 ± 0.00 pmol/mg protein
- Accumulation, active transport (human OAT4; 0.03 µM nominal, no inhibitor): 0.01 ± 0.01 pmol/mg protein
- Fold accumulation (human OAT4; 0.03 µM nominal, no inhibitor): 1.22
- Accumulation in OAT4 transporter expressing cells (human OAT4; [2]): 0.40 ± 0.12 pmol/mg protein
- Accumulation in control cells (human OAT4; [2]): 0.49 ± 0.14 pmol/mg protein
- Accumulation, active transport (human OAT4; [2]): -0.09 ± 0.18 pmol/mg protein
- Fold accumulation (human OAT4; [2]): 0.81
- Accumulation in OAT4 transporter expressing cells (human OAT4; 0.30 µM nominal, no inhibitor): 0.35 ± 0.11 pmol/mg protein
- Accumulation in control cells (human OAT4; 0.30 µM nominal, no inhibitor): 0.22 ± 0.05 pmol/mg protein
- Accumulation, active transport (human OAT4; 0.30 µM nominal, no inhibitor): 0.13 ± 0.12 pmol/mg protein
- Fold accumulation (human OAT4; 0.30 µM nominal, no inhibitor): 1.58
- Max. transporter-specific fold accumulation, without inhibitor (human OAT4; 0.3 µM): 1.58
- Uptake via transporter (OAT4) (human OAT4; absence and presence of benzbromarone): not taken up
- Max. transporter-specific fold accumulation, with inhibitor (human OAT4; Benzbromarone, 0.3 µM): 0.81
